The target in this experiment is T1, human V2 vasopressin receptor subtype (Homo sapiens, UniProt P30518).
T1 construct: host or cells: CHO cells, stably transfected (pZeoSV vector); membranes
As to the kind of experiment: Vasopressin binding in CHO cell membranes expressing human vasopressin V2 subtype receptors ([3H]arginine vasopressin). The following applies: for inhibition at 0.1 µM / V2 % inhibition @ 100 nM: 100 nM, value without parentheses; for pIC50: value in parentheses. From the text:
Vasopressin Binding in Chinese Hamster Ovary Cell Membranes Expressing Human Vasopressin V2 Subtype Receptors
Chinese Hamster Ovary (CHO) cells stably transfected with the human V2 subtype receptors were obtained from M. Thibonnier, Case Western Reserve University School of Medicine, Cleveland, Ohio.
A. Passaging and Amplification of Cells:
CHO cells transfected with the human vasopressin V2 subtype receptors obtained from M. Thibonnier (pZeoSV vector) are allowed to grow to confluency (approx. >90%) in T-150 flasks under sterile conditions, in a cell culture medium of F-12 Nutrient Mixture (HAM) with L-glutamine (Gibco Cat. #11765-054) containing 15 mM HEPES (Gibco Cat. #15630-080), 1% antibiotic/antimycotic (add 5 mL 100×, Gibco Cat. #15240-062 per 500 mL F-12), 250 μg/mL Zeocin (add 1.25 mL of 100 mg/mL Invitrogen R-250-01 per 500 mL F-12) and 10% Fetal Bovine Serum (Qualified, heat inactivated, Gibco Cat. #16140-063). The medium is removed by aspiration and the cells washed with 10 mL of Hank's Balanced Salt solution (Gibco Cat. #14175-095). The salt solution is removed by aspiration and the cells trypsinized with 5 mL of trypsin-EDTA (0.05% trypsin, 0.53 mM EDTA-4Na, Gibco Cat. #25300-070) for 1 min. The trypsin is removed by aspiration and the cells dislodged by tapping. Cell Culture medium (e.g. 30 mL for 1:30 split) is immediately added and mixed well to inactivate trypsin. 1 mL of detached cells is added to new culture flasks containing fresh Cell Culture medium (e.g. into 25 mL per T-150 flask), and mixed gently. The cells are incubated at 37° C. in 5% CO2. The medium is changed at 3 to 4 day interval (or as appropriate). The cells grow to confluency (approx. >75%-95%) within 7-8 days. All steps are done under sterile conditions.
The cells are washed twice gently with Hank's Balanced Salt solution (e.g. use 10 mL per T-150 flask). The excess solution is removed and the cells bathed for 15-30 min. in an enzyme-free Cell Dissociation Buffer (e.g. use 8 mL Hank's Based, Gibco Cat. #13150-016 per T-150 flask) until cells are loosened. The contents are transferred to centrifuge tubes (50 mL size) kept in ice bath. All subsequent steps are done at 4° C. The tubes are centrifuged at 300×g for 15 min (1380 rpm on SORVAL, Model RT6000D, using rotor for 50 mL tubes). The supernatant is discarded and the cells suspended in homogeneizing buffer(10 mM Tris-HCl containing 0.25 M sucrose and 1 mM EDTA, pH 7.4) ensuring that the volume of the buffer is about ten times the volume of the cell pellet. The cells are pooled into a centrifuge tube (50 mL) and homogenized with Polytron at setting 6 for 10 sec. The homogenate is transferred into a Potter-Elvjehm homogeneizer and homogenized with 3 strokes. The homogenate is centrifuged at 1500×g for 60 min at 4° C. (3100 rpm using SORVAL, model RT6000D, using rotor for 50 mL tubes). The pellet is discarded. The supernatant is centrifuged at 100,000×g for 60 min. at 4° C. (Beckman L8-80M ultracentrifuge; spin at 37,500 rpm with rotor type 70 Ti for 50 mL tubes; 38,000 rpm with type 80Ti for 15 mL tubes; or 35,800 rpm with rotor type 45Ti). The supernantant is discarded and the pellet suspended in 3 to 4 mL of Tris buffer (50 mM TRIS-HCl, pH 7.4). The protein content is estimated by the Bradford or Lowry method. The volume of the membrane suspension is adjusted with the membrane buffer (50 mM Tris-HCl containing 0.1% BSA and 0.1 mM PMSF) to give 3.0 mg/mL (or as appropriate) of protein. The membranes are aliquoted and stored at −70° C.
C. Radioligand Binding Assay:
In wells of a 96-well format microtiter plate, is added 90, 110 or 130 μL (to make up a final volume of 200 μL) of assay buffer containing 50 mM of Tris-HCl (pH 7.4), […], 1 mg % aprotinin, 1 mg % leupeptin, 2 mg % 1,10-phenanthroline, 10 mg % trypsin inhibitor, and 0.1 mM PMSF. The inhibitors are added on the day of the experiment. […]

pIC50: −log10 of the molar value. Bounds are passed on as bounds.

T1 sequence (P30518 whole entry): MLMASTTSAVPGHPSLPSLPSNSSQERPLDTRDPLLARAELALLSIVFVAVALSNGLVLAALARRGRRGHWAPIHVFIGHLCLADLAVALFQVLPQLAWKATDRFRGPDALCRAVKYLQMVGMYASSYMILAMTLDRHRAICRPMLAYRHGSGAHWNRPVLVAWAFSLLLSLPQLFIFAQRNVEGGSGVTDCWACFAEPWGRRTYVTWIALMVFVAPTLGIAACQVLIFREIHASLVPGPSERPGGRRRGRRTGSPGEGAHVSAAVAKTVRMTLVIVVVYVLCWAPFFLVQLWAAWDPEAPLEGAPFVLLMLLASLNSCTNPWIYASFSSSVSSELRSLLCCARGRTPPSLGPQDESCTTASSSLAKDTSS

Consider `Cc1cc(C(=O)N2Cc3ccc(C(=O)N[C@H](CO)C(=O)O)n3Cc3ccccc32)ccc1C1=CCCCC1` [Example 14, (2R)-2-{[10-(4-Cyclohex-1-en-1-yl-3-methyl-benzoyl)-10,11-dihydro-5H-pyrrolo[2,1-c][1,4]benzodiazepine-3-carbonyl]-amino}-3-hydroxy-propionic acid], for which the inhibition at 0.1 µM stood at 11%. As to `Cc1cc(C(=O)N2Cc3ccc(C(=O)N(CCO)CCO)n3Cc3ccccc32)ccc1C1=CCCc2ccccc21` [Example 16, {10-[4-(3,4-Dihydro-naphthalen-1-yl)-3-methyl-benzoyl]-10,11-dihydro-5H-pyrrolo[2,1-c][1,4]benzodiazepin-3-yl}-3-carboxylic acid bis-(2-hydroxy-ethyl)-amide], the “V2 % inhibition @ 100 nM” value turned out to be 46%. `Cc1cc(C(=O)N2Cc3ccc(C(=O)N(C)C[C@H](O)[C@H]4OC(=O)O[C@@H]4[C@H](O)CO)n3Cc3ccccc32)ccc1C1=CCCCC1` [Example 6, 10-(4-Cyclohex-1-en-1-yl-3-methylbenzoyl)-N-((2S)-2-{(4R,5R)-5-[(1R)-1,2-dihydroxyethyl]-2-oxo-1,3-dioxolan-4-yl}-2-hydroxyethyl)-N-methyl-10,11-dihydro-5H-pyrrolo[2,1-c][1,4]benzodiazepine-3-carboxamide]: the negative-log IC50 (pIC50) was 6.25. As for `Cc1cc(C(=O)N2Cc3ccc(C(=O)C(Cl)(Cl)Cl)n3Cc3ccccc32)ccc1C1=CCCCC1` [Example 5D, 2,2,2-Trichloro-1-[10-(4-cyclohex-1-en-1-yl-3-methyl-benzoyl)-10,11-dihydro-5H-pyrrolo[2,1-c][1,4]benzodiazepin-3-yl]-methanone], the “V2 % inhibition @ 100 nM” value worked out at 1%. Turning to `COc1cc(C2=CCCCC2)c(Cl)cc1C(=O)N1Cc2ccc(C(=O)N(C)C[C@@H]3OC(=O)O[C@H]3[C@H](O)[C@H]3COC(=O)O3)n2Cc2ccccc21` [Example 3, 10-(5-Chloro-4-cyclohex-1-en-1-yl-2-methoxybenzoyl)-N-[((4S,5S)-5-{(R)-hydroxy[(4R)-2-oxo-1,3-dioxolan-4-yl]methyl}-2-oxo-1,3-dioxolan-4-yl)methyl]-N-methyl-10,11-dihydro-5H-pyrrolo[2,1-c][1,4]benzodiazepine-3-carboxamide], the negative-log IC50 (pIC50) was 5.58. Turning to `COc1cc(C2=CCCCC2)c(Cl)cc1C(=O)N1Cc2ccc(C(=O)N(C)C[C@H](O)[C@@H](O)[C@H](O)[C@H](O)CO)n2Cc2ccccc21` [Example 1, 1-[[[10-[5-Chloro-4-(1-cyclohex-1-en-1-yl)-2-methoxybenzoyl]-10,11-dihydro-5H-pyrrolo[2,1-c][1,4]benzodiazepin-3-yl]carbonyl]methylamino]-1-deoxy-D-glucitol], the negative-log IC50 (pIC50) was 5.81.

On to `Cc1cc(C(=O)N2Cc3ccc(C(=O)O)n3Cc3ccccc32)ccc1C1=CCCCC1` [Example 5E, 10-(4-Cyclohex-1-en-1-yl-3-methyl-benzoyl)-10,11-dihydro-5H-pyrrolo[2,1-c][1,4]benzodiazepine-3-carboxylic acid], for which the inhibition at 0.1 µM was 15%. As for `COC[C@@H](OC)[C@@H](OC)[C@H](OC)[C@H](CN(C)C(=O)c1ccc2n1Cc1ccccc1N(C(=O)c1ccc(C3=CCCCC3)c(C)c1)C2)OC` [Example 8, 10-(4-Cyclohex-1-en-1-yl-3-methylbenzoyl)-N-methyl-N-[(2S,3R,4R,5R)-2,3,4,5,6-pentamethoxyhexyl]-10,11-dihydro-5H-pyrrolo[2,1-c][1,4]benzodiazepine-3-carboxamide], the negative-log IC50 (pIC50) is < 5.52. As for `COC(=O)[C@H](CO)NC(=O)c1ccc2n1Cc1ccccc1N(C(=O)c1ccc(C3=CCCCC3)c(C)c1)C2` [Example 11, (2S)-2-{[10-(4-Cyclohex-1-en-1-yl-3-methyl-benzoyl)-10,11-dihydro-5H-pyrrolo[2,1-c][1,4]benzodiazepine-3-carbonyl]-amino}-3-hydroxy-propionic acid methyl ester], the inhibition at 0.1 µM came to 10%.

As a reminder, the inhibition is how much of the control response was suppressed. By pIC50 is commonly meant the IC50 on a negative log10 scale, so that one unit is a factor of ten.
